Data taken from US20230201311A1, “COMPOSITIONS AND METHODS FOR TREATING NON-ALCOHOLIC STEATOHEPATITIS (NASH)” (SHANGHAI BENEMAE PHARMACEUTICAL CORPORATION, priority 2020, published 2023).

Experiments:
[1] = test system: HFD-NASH mice; assay: Pharmacodynamics study of Beinaglutide in HFD-NASH mice (Example 1, 4 weeks); assay type: in vivo
Method: HFD-NASH model development Animals were group-housed in standard cages at 22° C. in a 12:12-h light-dark cycle. Ob/ob mice were allowed ad libitum access to a diet enriched in fat (40% kcal), fructose (20% by weight), and cholesterol (2% by weight) (Research Diets, Inc., #D09100310). Over 9 weeks feeding, the mice (HFD-NASH) were developed with nonalcoholic fatty liver disease (steatosis, steatohepatitis with fibrosis), as assessed by biochemical methods (e.g., ALT levels).^1 ^1Santhekadur P K, Kumar D P, Sanyal AszJ. Preclinical models of non-alcoholic fatty liver disease. J Hepatol. 2018 February; 68(2):230-237; 2) Clapper J R. Hendricks M D, Gu G. at al. Diet-Induced mouse model of fatty liver disease and nonalcoholic steatohepatitis reflecting clinical disease progression and methods of assessment. Am J Physiol Gastrointest Liver Physiol 305: G483-G495. 2013.
After 9 weeks diet-induction, HFD-NASH mice were randomized into different groups by body weight. Body weight and diet were measured every day. At termination, blood was collected by cardiac puncture after animal's euthanasia by CO2. Liver were harvested and weighted. Right medial and/or left lateral lobes of the liver were excised. One part of liver was frozen for liver triglyceride measurement. One part was frozen for protein, RNA level qualification, like collagen 1 alpha 1 (Col1a1). One part was paraffin embedded. Hematoxylin and eosin (H&E) were used for morphological analysis. Picrosirius red stains was used for assessment of hepatic fibrosis. Histopathological analysis was performed by a pathologist blinded to the study. The remaining liver tissue was kept at −80° C. till analysis. Plasma levels of ALT, AST, TG, and total cholesterol (TC) were measured by bioanalyzer or kits.
Oral glucose tolerance test (OGTT) was performed at day 30 and was a test to diagnose type 2 diabetes (FIG. 4B).
Homeostatic Model Assessment of Insulin Resistance (HOMA-IR) is a calculation marker for insulin resistance which was calculated by formula: Glucose (mM)×Insulin […]/22.5 (FIG. 4C). *P<0.05, […] vs vehicle group by student t test.

[2] = mouse, in vivo, sc
Method: Mice (n=4 per time point) were randomized into different groups by body weight on the day before the study. Mice were fasted overnight before dosing. […] Samples were collected at the time intervals shown in Table 1, where about 60 μL blood was taken into EDTA-coated tubes (pre-added 2.5 μL DPP-4 inhibitor, and 2.5 μL protease inhibitor). The plasma was separated on a pre-cooled centrifuge and then immediately frozen in dry ice. The samples were stored at −80° C. till assay.

[3] = test system: HFD-NASH mice; assay: Therapeutic effects of Beinaglutide on HFD induced NASH model in ob/ob mice (Example 2, 11 weeks); assay type: in vivo; conditions: for percentage of body weight changes from baselines: Day 78 (11 weeks); for plasma ALT level: FIG. 16B
From the text: Animal grouping and experiment process: A total of 70 male ob/ob mice (6 weeks old) were fed with a chow diet after transferred to SPF animal room and acclimatized for 1 week. The feed was then switched to HFD diet (D09100310, fat (40 Kcal %), fructose (20 Kcal %) and cholesterol (2%), also named GAN (Gubra Amylin NASH) diet, Research Diets, Inc., USA) and maintained for 6 weeks. Inversed artificial circadian rhythms lighting were adopted during this period and subsequent drug administration period.
Plasma samples were collected for the measurement of ALT and mouse body weight data were measured at week 6. Animals were then randomly allocated into 4 groups (12 animals/group) based on body weight (the first weight index) and plasma ALT level (the second weight index). Drug and vehicle administration were started from week 7 since modeling start and mice were maintained on HFD diet with inversed artificial circadian rhythms lighting.
Data recording: Appearance and behavior of each mouse were observed after administration. All abnormal appearance, status and behaviors were recorded. In the period of HFD model development, body weight was measured once weekly from week 1 to week 6. Then body weight and food consumption were measured twice weekly since compound dosing start (week 7). The food consumption was calculated by the diet consumption of each cage of mice within 8 hours per day, the average food consumption per group was calculated. […]
Blood and tissue sampling: At the end of the in vivo study, all mice were euthanized via carbon dioxide (CO2) asphyxia after 11.5 hours fasting. Blood samples were collected via cardiac puncturing, one aliquot of each blood sample was collected into a tube without anti-coagulant for serum preparation. Serum was obtained by centrifugation at 3000 rpm for 10 minutes at 4° C. and then stored in a −80° C. refrigerator before being used for the measurement of ALT, AST, total bilirubin (TBIL), TC, TG and LDL-c. The other aliquot of each blood sample was collected into a tube with EDTA-K anti-coagulant for plasma preparation. Plasma samples were obtained by centrifugation at 4000×g for 10 minutes at 4° C. and then stored in a −80° C. refrigerator.
After the animal was sacrificed, the body weight and liver weight were measured, and four lobes of each liver were collected. The right middle lobe of each liver was collected, cut into two sections, put into two SNAP frozen tubes and kept at −80° C. before testing. One section of the liver tissue was used for mRNA expression analysis of Tgfb1, Col1a1 and Acta2; and the other section of the liver tissue was used for the measurement of TC and TG contents. The left middle lobe of each liver was collected, store at −80° C. for future use. The left lateral lobe of each liver was collected, cut into two sections and put into two tubes. One section was used for optimal cutting temperature (OCT) embedding, frozen sectioning and oil red staining for steatosis examination, and for calculation of percentage of fat deposition area. The other section was fixed with 10% neutral formalin solution and processed into formalin fixed paraffin-embedded (FFPE) block for H&E, Sirius red or α-SMA IHC staining respectively. The right lateral lobe of each liver was collected and fixed in 10% neutral formalin for future use.
Serum biochemistry analysis: The serum samples were taken out from −80° C. refrigerator and restored to room temperature. 150 μl of each serum sample was pipetted out for the analysis of ALT, AST, TBIL, TC, TG and LDL-c with automatic biochemical analyzer (HITACHI 7180).
qPCR analysis: The right middle lobe of each liver tissue was cut into small pieces, and 30-50 mg of liver tissue was weighed and transferred into a Lysing Matrix D tube, then 1 ml of TRIzol Reagent was added into Lysing Matrix D containing tissue immediately. […]

[4] = all 3 doses (0.6, 1.2, 2.4 mg/kg), about 11 weeks

## CC[C@H](C)[C@H](NC(=O)[C@H](Cc1ccccc1)NC(=O)[C@H](CCC(=O)O)NC(=O)[C@H](CCCCN)NC(=O)[C@H](C)NC(=O)[C@H](C)NC(=O)[C@H](CCC(N)=O)NC(=O)CNC(=O)[C@H](CCC(=O)O)NC(=O)[C@H](CC(C)C)NC(=O)[C@H](Cc1ccc(O)cc1)NC(=O)[C@H](CO)NC(=O)[C@H](CO)NC(=O)[C@@H](NC(=O)[C@H](CC(=O)O)NC(=O)[C@H](CO)NC(=O)[C@@H](NC(=O)[C@H](Cc1ccccc1)NC(=O)[C@@H](NC(=O)CNC(=O)[C@H](CCC(=O)O)NC(=O)[C@H](C)NC(=O)[C@@H](N)Cc1cnc[nH]1)[C@@H](C)O)[C@@H](C)O)C(C)C)C(=O)N[C@@H](C)C(=O)N[C@@H](Cc1c[nH]c2ccccc12)C(=O)N[C@@H](CC(C)C)C(=O)N[C@H](C(=O)N[C@@H](CCCCN)C(=O)NCC(=O)N[C@@H](CCCNC(=N)N)C(=O)O)C(C)C [Beinaglutide]
[1]; 2.4 mg/kg s.c. three times per day, 4 weeks, vs control group, FIG. 4A
  Body weight: lower body weight
[1]; 2.4 mg/kg s.c. three times per day, 4 weeks, vs vehicle, FIG. 2A
  liver weight: significantly reduced
[1]; 2.4 mg/kg s.c. three times per day, 4 weeks, vs vehicle, FIG. 2B
  liver triglyceride (TG) content: significantly reduced
[1]; 2.4 mg/kg s.c. three times per day, 4 weeks, vs vehicle, FIG. 2C
  plasma alanine aminotransferase (ALT): significantly reduced
[1]; 2.4 mg/kg s.c. three times per day, 4 weeks, vs vehicle, FIG. 2D
  plasma aspartate aminotransferase (AST): significantly reduced
[1]; 2.4 mg/kg s.c. three times per day, 4 weeks, vs vehicle, FIG. 2E
  macrovesicular and microvesicular steatosis (H&E-stained liver sections): significantly reduced
[1]; 2.4 mg/kg s.c. three times per day, 4 weeks, vs vehicle, FIG. 3A
  Plasma TNF-α level: significantly reduced
[1]; 2.4 mg/kg s.c. three times per day, 4 weeks, vs vehicle, FIG. 3B
  Plasma IL-6 level: significantly reduced
[1]; 2.4 mg/kg s.c. three times per day, 4 weeks, vs vehicle, FIG. 3E
  Hepatic fibrosis (picrosirius red stained liver sections): significantly reduced
[1]; 2.4 mg/kg s.c. three times per day, 4 weeks, vs vehicle, FIGS. 3C-3D
  Protein level of liver collagen 1 alpha 1 (western blotting, densitometry normalized to actin): significantly lower
[1]; 2.4 mg/kg, OGTT at day 30, vs control group, FIG. 4B
  blood glucose in the oral glucose tolerance test (OGTT): lower blood glucose
[1]; 2.4 mg/kg, vs control group, FIG. 4C
  HOMA-IR (insulin resistance): lower insulin resistance
[2]
  difference of pharmacokinetics between C57BL/6J mice and HFD-NASH mice: No significant difference
[3]; 0.6 mg/kg and 2.4 mg/kg, 11 weeks, vs control group, FIGS. 20A-20C
  liver fibrosis scores (H&E staining): significantly (P<0.05) decreased
[3]; 0.6 mg/kg or 2.4 mg/kg, about 11 weeks
  animal counts with severe pathological changes (steatosis, steatosis location, interlobular inflammation, liver fibrosis scores, liver fibrosis pattern): decreased
[3]; 0.6 mg/kg t.i.d. s.c., first of three values given 'respectively'
  percentage of body weight changes from baselines: −10.32%
[3]; 1.2 mg/kg and 2.4 mg/kg, 11 weeks, FIG. 18B
  liver TG contents: dramatically decreased
[3]; 1.2 mg/kg and 2.4 mg/kg, after 6 weeks of treatment
  plasma ALT level: significantly decreased
[3]; 1.2 mg/kg and 2.4 mg/kg, after 11 weeks of treatment, vs control group, FIG. 17A
  serum ALT: significantly (P<0.05, or P<0.01) decreased
[3]; 1.2 mg/kg and 2.4 mg/kg, after 11 weeks of treatment, vs control group, FIG. 17E
  serum TC levels: significantly (P<0.05, or P<0.01) decreased
[3]; 1.2 mg/kg and 2.4 mg/kg, after 11 weeks, P>0.05, FIG. 17B
  serum AST level: appeared to have decreased
[3]; 1.2 mg/kg t.i.d. s.c., second of three values given 'respectively'
  percentage of body weight changes from baselines: −10.12%
[3]; 2.4 mg/kg t.i.d. s.c., third of three values given 'respectively'
  percentage of body weight changes from baselines: −10.74%
[3]; 2.4 mg/kg, 11 weeks, vs control group, FIG. 23B
  area of liver macrovesicular steatosis (H&E staining): significantly decreased
[3]; 2.4 mg/kg, 11 weeks, FIG. 21C
  number of animals with significant fibrosis severity (liver fibrosis pattern scoring): reduced
[3]; 2.4 mg/kg, 11 weeks, FIGS. 24A-24E
  animal number with severe pathology for steatosis, steatosis location, interlobular inflammation: decreased
[3]; Beinaglutide treatment groups (0.6, 1.2, 2.4 mg/kg t.i.d. s.c.), 11 weeks, vs control group, FIGS. 13A-13D
  body weight increase: significantly reduced
[3]; Beinaglutide treatment groups (0.6, 1.2, 2.4 mg/kg), last 3 measurements (Day 68, 71, 75), vs control group, FIG. 14
  8-hour average food consumption: significantly reduced
[3]; Beinaglutide treatment groups vs control group, after 9 weeks treatment
  plasma ALT level: no significant difference
[3]; Beinaglutide treatment groups, 11 weeks, P>0.05, FIG. 17D
  serum TG levels: no significant effect
[3]; Beinaglutide treatment groups, 11 weeks, vs control group, FIG. 18A
  liver TC content: No statistically significant effect
[3]; Beinaglutide treatment groups, 11 weeks, FIG. 17C
  serum TBIL: no significant effect
[3]; [4]
  liver inflammation score: appeared to have decreased
  serum AST level: appeared to have decreased
[3]; all Beinaglutide treatment groups, 11 weeks, FIGS. 22A-22B
  α-SMA positive areas (IHC staining): decreased
[3]; each Beinaglutide dose group, 11 weeks, vs control group, FIG. 19A
  relative mRNA expression level of Col1a1 in liver (qRT-PCR): significantly decreased
[3]; each Beinaglutide dose group, 11 weeks, vs control group, FIG. 19B
  Tgfb1 gene expression level in liver (qRT-PCR): no statistically significant differences
[3]; each Beinaglutide dose group, 11 weeks, vs control group, FIG. 19C
  Acta2 gene expression level in liver (qRT-PCR): no statistically significant differences
[3]; each Beinaglutide treatment group (0.6, 1.2, 2.4 mg/kg), 11 weeks, vs control group, FIG. 17F
  serum LDL-c level: significant (P<0.05, P<0.01, or even P<0.001) decrease
[3]; each Beinaglutide treatment group, 11 weeks, vs control group, FIGS. 21A-21C
  percentage of Sirius red staining positive area: appeared to have decreased
[3]; every Beinaglutide treatment group (0.6, 1.2, 2.4 mg/kg), 11 weeks, vs control group, FIG. 15A
  liver weight: significantly decreased
[3]; every Beinaglutide treatment group (0.6, 1.2, 2.4 mg/kg), 11 weeks, vs control group, FIG. 15B
  liver index: significantly decreased
[3]; every Beinaglutide treatment group, 11 weeks, FIG. 23A
  NAS score: appeared to have decreased
